For series [1], the system named is HEI-OC1 cells. The experiment in a line: Cisplatin cytotoxicity in inner ear sensory cells. Format: cell-based, mouse. As to conditions: concentration used in subsequent experiments to ensure IC 50; 24 hours; read-out: IC 50 on cell viability.
Experimental: House Ear Institute-Organ of Corti 1 (HEI-OC1) cells provided by Y J. Seo (Yonsei University, wonju, Korea) and F. Kalinec, (House Ear Institute, (Los Angeles, Calif., USA) were cultured in high-glucose Dulbecco's modified Eagle's medium (DMEM; Lonza, USA) supplemented with 10% Fetal bovine serum (FBS; Gibco BRL, USA) and 50 U/ml gamma-interferon (PEPRO TECH, INC. USA) without any antibiotics in a permissive condition (33° C., 10% CO2). For the non-permissive condition, cultured cells were cultured in the permissive condition for a certain period (Kalinec G, Thein P, Park C, Kalinec F. HEI-OC1 cells as a model for investigating drug cytotoxicity. […] Growth curves were performed to identify the growth patterns of cells in each condition. Cells cultured at 33° C., in a 10% CO2 atmosphere condition were recorded on day 0 after cell counting before seeding. Cells were recovered stripped daily from the cell dish and enumerated. This was done then, cell counted, confirmed for up to 14 days. Following the shift, cells were enumerated daily for 14 days. As explained above, HEI-OC1 cells were cultured in permissive conditions (33° C., 10% CO2) until day 5 and then transferred to the non-permissive condition (39° C., 5% CO2).
High-glucose DMEM supplemented with 0.5% FBS was used. […]
In series [2] the test system is HEI-OC1 cells. Nature of the series: Cell viability with cisplatin and probucol (oto-protection). Format: cell-based, mouse. On the procedure:
House Ear Institute-Organ of Corti 1 (HEI-OC1) cells provided by Y J. Seo (Yonsei University, wonju, Korea) and F. Kalinec, (House Ear Institute, (Los Angeles, Calif., USA) were cultured in high-glucose Dulbecco's modified Eagle's medium (DMEM; Lonza, USA) supplemented with 10% Fetal bovine serum (FBS; Gibco BRL, USA) and 50 U/ml gamma-interferon (PEPRO TECH, INC. USA) without any antibiotics in a permissive condition (33° C., 10% CO2). For the non-permissive condition, cultured cells were cultured in the permissive condition for a certain period (Kalinec G, Thein P, Park C, Kalinec F. HEI-OC1 cells as a model for investigating drug cytotoxicity. Hearing Res. 2016; 335:105-117. doi:10.1016/j.heares.2016.02.019). Growth curves were performed to identify the growth patterns of cells in each condition. Cells cultured at 33° C., in a 10% CO2 atmosphere condition were recorded on day 0 after cell counting before seeding. Cells were recovered stripped daily from the cell dish and enumerated. This was done then, cell counted, confirmed for up to 14 days. Following the shift, cells were enumerated daily for 14 days. As explained above, HEI-OC1 cells were cultured in permissive conditions (33° C., 10% CO2) until day 5 and then transferred to the non-permissive condition (39° C., 5% CO2).
Cisplatin was from Sigma Chemical Co. (St. Louis, Mo., USA). […]

Series [3] concerns spiral ganglion neurons (SGNs). The experiment in a line: Light sheet microscopy quantification of spiral ganglion neuron (SGN) density in cochlea. Format: in vivo, guinea pig. The protocol:
Harvested temporal bones were immersed in 4% para-formaldehyde overnight at 4° C., before being decalcified for 14-18 days in 10% EDTA. They were then rinsed with Sorenson's buffer, dehydrated in a series of 50, 75, 90 and 100% ethanol (8-12 h each step), and immersed in Spalteholz solution for 24 h, to render the sample optically transparent. Samples were then imaged using a custom light-sheet fluorescence microscope (LSFM), based on the setup described by Santi et al. (2009) (Santi P A. Light Sheet Fluorescence Microscopy. J Histochem Cytochem. 2010; 59(2):129-138. doi:10.1369/0022155410394857), where ‘virtual slices’ of the inner ear were imaged at […] steps in the axial plane, detailed in Brown et al. (2016) (Brown D J, Pastras C J, Curthoys I S, Southwell C S, Roon L V. Endolymph movement visualized with light sheet fluorescence microscopy in an acute hydrops model. Hearing Res. 2016; 339 (PloS one 7 2012):112-124. doi:10.1016/j.heares.2016.06.007), providing a ‘z-stack’ of between 300 and 1000 virtual slice images. LSFM images were analyzed by a blinded investigator, for later comparison to the functional data and treatment. LSFM z-stacks were analyzed using ImageJ software, with 3D volumes segmented for volume analysis using the Segmentation3D plugin. TIFF files collected from the light sheet microscope were reconstructed into representative 3D images. […]

The subject of series [4] is guinea pig model of ototoxicity. The experiment in a line: Experimental Example 4: CAP thresholds in ototoxicity animal model with kanamycin and furosemide. The series is classed as in vivo, guinea pigs (Cavia porcellus). Conditions: for difference of CAP between ototoxicity and ototoxicity with probucol sides: day 14 post-treatment. On the procedure: Experiments were performed on 9 adult guinea pigs (Cavia porcellus) of either sex with body weights between 250 and 350 g. All experimental procedures were approved by The University of Curtin Animal Ethics Committee.
For all experiments, each animal first underwent a recovery surgery at day ‘zero’ to inject.
For the recovery surgery, each animal was given a 0.05 ml subcutaneous injection of Temgesic (Buprenorpherine; Reckitt Benckiser, Auckland NZ) and 0.1 ml of Atrosine (0.6 mg/ml atropine sulphate; Apex Laboratories, NSW, Australia) before being anesthetized using isoflurane (2-5%). The temperature was maintained using an electric heating pad, and lignocaine was used as a local anesthetic. While using aseptic techniques, animals were mounted on a custom ear-bar setup, and the left bulla surgically opened via a dorsal approach providing a view of the left round window, using aseptic techniques. Before the drug administrations, the AgCl ball-electrode (reference in the neck) was placed on the round window for recording compound action potential (CAP) responses (Brown D J, Chihara Y, Curthoys I S, Wang Y, Bos M. Changes in cochlear function during acute endolymphatic hydrops development in guinea pigs. Hearing Res. 2013; 296 (J. Neurophysiol. 101 2009):96-106. doi:10.1016/j.heares.2012.12.004; Brown D J, Pastras C J, Curthoys I S, Southwell C S, Roon L V. Endolymph movement visualized with light sheet fluorescence microscopy in an acute hydrops model. Hearing Res. 2016; 339 (PloS one 7 2012):112-124. doi:10.1016/j.heares.2016.06.007; and Brown D J, Sokolic L, Fung A, Pastras C J. Response of the Inner Ear to Lipopolysaccharide Introduced Directly into Scala Media. Hearing Res. 2018; 370 (Otol Neurotol 32 2011):105-112. doi:10.1016/j.heares.2018.10.007).
The bulla opening was resealed with dental cement before the overlying skin was sutured. The animal was then removed from isoflurane, and allowed to recover slowly under close observation. During recovery, the animal was given a subsequent 0.05 ml i.p. dose of Temgesic, along with an oral delivery of 1 ml Ibuprofen (40 mg/ml; Reckitt Benckiser Pty Ltd, Australia). Animals were then allowed to recover for 14 days (±3) days. For following CAP threshold measurements after 14 days, the bulla was re-opened with same procedures. Thereafter, animals were re-anaesthetized and mounted on the ear-bars, for a repeated measure of CAP thresholds described previously. Animals were then deeply anaesthetized, and euthanized via cardiac fixation for temporal bones harvesting.
The standard deviation of CAP thresholds was measured at day 0.

The test system is the same in series [5]. The experiment in a line: Experimental Example 3: round window CAP thresholds after kanamycin and furosemide ototoxicity. The series is classed as in vivo, guinea pigs (Cavia porcellus). The text has this: The animal was then removed from isoflurane, and allowed to recover slowly under close observation. […] Animals were then deeply anaesthetized, and euthanized via cardiac fixation for temporal bones harvesting.

“Also recorded” adds a separate entry of the source.

With `N.N.[Cl][Pt][Cl]` [cisplatin], the IC50 in series [1] was approximately 20 µM.

With `CC(C)(Sc1cc(C(C)(C)C)c(O)c(C(C)(C)C)c1)Sc1cc(C(C)(C)C)c(O)c(C(C)(C)C)c1` [probucol, 2,6-ditert-butyl-4-[2-(3,5-ditert-butyl-4-hydroxyphenyl)sulfanylpropan-2-ylsulfanyl]phenol], the “cell survival compared with control” value in series [2] (probucol 20 μM and 50 μM with cisplatin, 24 h) was “promoted the cell survival”. The “cellular mitogenesis compared with control” value in series [2] (probucol 100 μM, attributed to high concentration of vehicle DMSO) was “significant decrease in cellular mitogenesis”. The “density of SGNs in the basal turn versus ototoxicity alone group” value in series [3] (basal turn of cochlea, significant) is listed as “significantly larger density; also recorded: kept not to be injured”. Moreover, the “effect on hair cell damages by ototoxicity drugs” value in series [3] (guinea pig, in vivo) is reported as “protective effect”. Besides, the “difference of CAP between ototoxicity and ototoxicity with probucol sides” value in series [4] (6 kHz, probucol injected into bulla around RWM) is reported as 23.4±9.49 dB; in series [4] (10 kHz) it was 21.89 ± 7.72 dB; in series [4] (14 kHz) it was 16.56±4.15 dB. Also, in series [4] (guinea pig, in vivo), the “hearing protection in the ototoxicity guinea pig model” value is listed as “hearing protection effect”. The “thresholds of hearing (CAP) versus control side” value in series [4] (significant only at 6 and 10 kHz) is recorded as “better thresholds of hearing”. The “mean difference between left and right CAP thresholds” value in series [5] (2 kHz, insignificant) is 3 dB. Further, in series [5] (about 100 μL probucol-gel on round window, after kanamycin and furosemide, significant at all frequencies except 6 and 10 kHz), the “hearing loss (CAP thresholds compared to baseline), probucol-treated cochleae” value is on record as 11-40 dB. For the same molecule, the “average CAP threshold compared to non-probucol treated cochlea” value in series [5] (at 6 kHz and 10 kHz) is listed as “significantly lower”.

(Values after patent publication US20230218544A1, “TREATMENT METHODS AND FORMULATIONS” (Curtin University, priority 2020, published 2023).)
